# Experiments:
# Assay type in all cases: cell-based
# [1] = target: T1, human cloned CHRM2 receptor (Homo sapiens, UniProt P08172); experiment: CHRM2 Ca++ Flux Assay (M2_CHO cells, agonist mode); conditions: M2 CHO cells; for EC50: agonist mode, geometric mean if tested more than once, read-out: M2 FDSS EC50; for Emax / M2 FDSS PA %: Percent Activity (PA) measured to EC100 of Carbachol; for Emax: read-out: M2 FDSS PA %
# T1 construct: expressed in transfected cells; host or cells: CHO-K1 (M2_CHO)
# T1 sequence (P08172 1-466): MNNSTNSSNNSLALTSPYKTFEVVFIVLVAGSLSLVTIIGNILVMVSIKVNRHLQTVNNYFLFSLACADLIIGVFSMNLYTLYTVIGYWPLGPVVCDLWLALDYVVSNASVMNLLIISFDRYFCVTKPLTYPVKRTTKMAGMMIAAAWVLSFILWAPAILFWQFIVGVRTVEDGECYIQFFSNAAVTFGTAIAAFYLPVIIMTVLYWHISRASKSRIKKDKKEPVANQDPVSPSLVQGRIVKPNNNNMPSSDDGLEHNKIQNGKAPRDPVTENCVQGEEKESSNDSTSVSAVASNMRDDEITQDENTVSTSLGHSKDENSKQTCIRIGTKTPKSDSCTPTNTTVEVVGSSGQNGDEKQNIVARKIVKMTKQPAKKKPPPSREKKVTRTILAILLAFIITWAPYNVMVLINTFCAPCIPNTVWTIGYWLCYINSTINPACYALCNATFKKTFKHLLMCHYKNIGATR
# Procedure, shortened: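 CHO-K1 cells stably expressing human CHRM2 were plated overnight at 12K cells/well and loaded with Ca++ dye for 1–2 h. They were then held 60 minutes in HBSS −Ca/−Mg, 20 mM HEPES, 2.5 mM probenecid, 20 μM ATP. Agonist-mode Ca++ flux was read over 3 minutes. Four-parameter fits of triplicates gave percent activity relative to carbachol EC100.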
# [2] = target: T2, human cloned CHRM5 receptor (Homo sapiens, UniProt P08912); experiment: CHRM5 Ca++ Flux Assay (M5_CHO cells, agonist mode); conditions: for Emax / M5 FDSS PA %: Percent Activity (PA) measured to EC100 of Carbachol; for Emax: read-out: M5 FDSS PA %; for EC50: agonist mode, geometric mean if tested more than once, read-out: M5 FDSS EC50
# T2 construct: expressed in transfected cells; host or cells: CHO (M5_CHO)
# T2 sequence (P08912 1-532): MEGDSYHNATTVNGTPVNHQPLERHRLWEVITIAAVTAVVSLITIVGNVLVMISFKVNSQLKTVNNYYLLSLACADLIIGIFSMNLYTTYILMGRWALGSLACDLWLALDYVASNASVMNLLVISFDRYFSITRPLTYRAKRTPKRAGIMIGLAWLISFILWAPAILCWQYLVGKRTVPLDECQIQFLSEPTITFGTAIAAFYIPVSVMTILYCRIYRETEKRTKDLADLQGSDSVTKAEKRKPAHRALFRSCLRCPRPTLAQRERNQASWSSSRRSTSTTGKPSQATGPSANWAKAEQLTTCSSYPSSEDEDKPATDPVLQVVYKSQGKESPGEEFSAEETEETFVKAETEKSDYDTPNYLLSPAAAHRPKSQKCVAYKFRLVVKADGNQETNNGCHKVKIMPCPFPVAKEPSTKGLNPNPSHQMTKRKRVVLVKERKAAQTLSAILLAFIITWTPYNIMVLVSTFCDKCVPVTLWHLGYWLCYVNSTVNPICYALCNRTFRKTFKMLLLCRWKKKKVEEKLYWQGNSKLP
# Procedure, shortened: (§1)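 CHO-K1 cells stably expressing human M3 or M5 receptor, dye-loaded ≥1 h, treated with 11-point compound doses in triplicate; Ca++ flux read over 3 min (FDSS). Agonist-mode four-parameter fit; percent activity relative to carbachol EC100; repeat tests reported as geometric mean.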
# [3] = target: T3, human cloned CHRM3 receptor (Homo sapiens, UniProt P20309); experiment: CHRM3 Ca++ Flux Assay (M3_CHO cells, agonist mode); conditions: for Emax / M3 FDSS PA %: Percent Activity (PA) measured to EC100 of Carbachol; for Emax: read-out: M3 FDSS PA %; for EC50: agonist mode, geometric mean if tested more than once, read-out: M3 FDSS EC50
# T3 construct: expressed in transfected cells; host or cells: CHO-K1 (M3_CHO)
# Procedure, shortened: as §1
# T3 sequence (P20309 whole entry): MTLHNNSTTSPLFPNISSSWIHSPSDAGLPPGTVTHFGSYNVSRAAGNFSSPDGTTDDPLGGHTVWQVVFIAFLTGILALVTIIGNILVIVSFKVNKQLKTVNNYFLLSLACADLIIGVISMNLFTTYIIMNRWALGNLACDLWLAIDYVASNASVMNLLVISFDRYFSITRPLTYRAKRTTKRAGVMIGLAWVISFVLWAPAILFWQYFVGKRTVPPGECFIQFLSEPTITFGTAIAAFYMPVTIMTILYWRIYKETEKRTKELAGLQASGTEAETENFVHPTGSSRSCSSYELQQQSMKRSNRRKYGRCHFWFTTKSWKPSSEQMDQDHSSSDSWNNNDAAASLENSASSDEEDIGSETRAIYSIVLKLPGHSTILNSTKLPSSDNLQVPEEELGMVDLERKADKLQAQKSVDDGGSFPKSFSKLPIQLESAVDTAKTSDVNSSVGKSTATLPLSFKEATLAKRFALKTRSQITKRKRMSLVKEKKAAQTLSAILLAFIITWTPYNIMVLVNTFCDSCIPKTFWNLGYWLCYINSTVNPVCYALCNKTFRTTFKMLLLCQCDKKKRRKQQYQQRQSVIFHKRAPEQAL
Compound,EC50 [1] [µM],Emax [1] [%],Emax [2] [%],EC50 [2] [µM],Emax [3] [%],EC50 [3] [µM],M2 FDSS PA % [1] [%],M5 FDSS PA % [2] [%],M3 FDSS PA % [3] [%]
"OC[C@H]1C[C@H](Oc2ccc(F)cc2C2CCN([C@@H]3COC4(C3)CN(c3nnco3)C4)CC2)C1 (single isomer, unassigned) [Example 2HH, ((1S,3r)-3-(2-(1-((S)-2-(1,3,4-oxadiazol-2-yl)-5-oxa-2-azaspiro[3.4]octan-7-yl)piperidin-4-yl)-4-fluorophenoxy)cyclobutyl)methanol or ((1R,3s)-3-(2-(1-((S)-2-(1,3,4-oxadiazol-2-yl)-5-oxa-2-azaspiro[3.4]octan-7-yl)piperidin-4-yl)-4-fluorophenoxy)cyclobutyl)methanol]",6.57,–,–,> 25,–,> 25,25,0,0
"c1ccc(C2CCN([C@@H]3COC4(C3)CN(c3ncco3)C4)CC2)c(OC2COC2)c1 [Example 4C, (S)-2-(oxazol-2-yl)-7-(4-(2-(oxetan-3-yloxy)phenyl)piperidin-1-yl)-5-oxa-2-azaspiro[3.4]octane]",0.433,38,0,> 25,0,> 25,–,–,–
"COC(C)(C)CCOc1ccc(F)cc1C1CCN([C@@H]2COC3(C2)CN(c2nncs2)C3)CC1 [Example 5N, (S)-7-(4-(5-fluoro-2-(3-methoxy-3-methylbutoxy)phenyl)piperidin-1-yl)-2-(1,3,4-thiadiazol-2-yl)-5-oxa-2-azaspiro[3.4]octane]",> 25,38,21,12.4,0,> 25,–,–,–
"CC(C)(O)COc1ccc(F)cc1C1CCN([C@@H]2COC3(C2)CN(c2ncco2)C3)CC1 [Example 4K, (S)-1-(4-fluoro-2-(1-(2-(oxazol-2-yl)-5-oxa-2-azaspiro[3.4]octan-7-yl)piperidin-4-yl)phenoxy)-2-methylpropan-2-ol]",> 25,0,0,> 25,0,> 25,–,–,–
"Fc1ccc([C@H]2CCOC2)c(C2CCN([C@@H]3COC4(C3)CN(c3nnco3)C4)CC2)c1 (single isomer, unassigned) [Example 3F, (S)-7-(4-(5-fluoro-2-((R)-tetrahydrofuran-3-yl)phenyl)piperidin-1-yl)-2-(1,3,4-oxadiazol-2-yl)-5-oxa-2-azaspiro[3.4]octane or (S)-7-(4-(5-fluoro-2-((S)-tetrahydrofuran-3-yl)phenyl)piperidin-1-yl)-2-(1,3,4-oxadiazol-2-yl)-5-oxa-2-azaspiro[3.4]octane]",0.406,–,–,> 25,–,> 25,49,0,0
"c1ccc(C2CCN([C@@H]3COC4(C3)CN(c3ncco3)C4)CC2)c(C2CCOCC2)c1 [Example 4V, (S)-2-(oxazol-2-yl)-7-(4-(2-(tetrahydro-2H-pyran-4-yl)phenyl)piperidin-1-yl)-5-oxa-2-azaspiro[3.4]octane]",10.7,14,0,> 25,0,> 25,–,–,–
"O[C@H]1CC[C@@H](c2ccc(F)cc2C2CCN([C@@H]3COC4(C3)CN(c3nnco3)C4)CC2)CC1 (single isomer, unassigned) [Example 3I, (1R,4s)-4-(2-(1-((S)-2-(1,3,4-oxadiazol-2-yl)-5-oxa-2-azaspiro[3.4]octan-7-yl)piperidin-4-yl)-4-fluorophenyl)cyclohexan-1-ol or (1S,4r)-4-(2-(1-((S)-2-(1,3,4-oxadiazol-2-yl)-5-oxa-2-azaspiro[3.4]octan-7-yl)piperidin-4-yl)-4-fluorophenyl)cyclohexan-1-ol]",3.86,–,–,> 25,–,> 25,32,0,0
"c1ccc(C2CCN([C@@H]3COC4(C3)CN(c3ncco3)C4)CC2)c(O[C@@H]2CCOC2)c1 [Example 4F, (S)-2-(oxazol-2-yl)-7-(4-(2-(((R)-tetrahydrofuran-3-yl)oxy)phenyl)piperidin-1-yl)-5-oxa-2-azaspiro[3.4]octane]",3.26,17,0,> 25,0,> 25,–,–,–

# Further lines, results first:
EC50 [1] [µM],Emax [1] [%],Emax [2] [%],EC50 [2] [µM],Emax [3] [%],EC50 [3] [µM],M2 FDSS PA % [1] [%],M5 FDSS PA % [2] [%],M3 FDSS PA % [3] [%],Compound
0.657,35,0,> 25,0,> 25,–,–,–,"Fc1ccc(OC2COC2)c(C2CCN([C@@H]3COC4(C3)CN(c3nncs3)C4)CC2)c1 [Example 5G, (S)-7-(4-(5-fluoro-2-(oxetan-3-yloxy)phenyl)piperidin-1-yl)-2-(1,3,4-thiadiazol-2-yl)-5-oxa-2-azaspiro[3.4]octane]"
1.17,33,0,> 25,0,> 25,–,–,–,"Fc1ccc(O[C@H]2CCOC2)c(C2CCN([C@@H]3COC4(C3)CN(c3nncs3)C4)CC2)c1 [Example 5O, (S)-7-(4-(5-fluoro-2-(((S)-tetrahydrofuran-3-yl)oxy)phenyl)piperidin-1-yl)-2-(1,3,4-thiadiazol-2-yl)-5-oxa-2-azaspiro[3.4]octane]"
4.75,46,0,> 25,0,> 25,–,–,–,"Fc1ccc(OC2CCOCC2)c(C2CCN([C@@H]3COC4(C3)CN(c3nncs3)C4)CC2)c1 [Example 5J, (S)-7-(4-(5-fluoro-2-((tetrahydro-2H-pyran-4-yl)oxy)phenyl)piperidin-1-yl)-2-(1,3,4-thiadiazol-2-yl)-5-oxa-2-azaspiro[3.4]octane]"
4.6,23,0,> 25,0,> 25,–,–,–,"COCCOc1ccc(F)cc1C1CCN([C@@H]2COC3(C2)CN(c2nncs2)C3)CC1 [Example 5S, (S)-7-(4-(5-fluoro-2-(2-methoxyethoxy)phenyl)piperidin-1-yl)-2-(1,3,4-thiadiazol-2-yl)-5-oxa-2-azaspiro[3.4]octane]"
> 25,0,4,> 25,0,> 25,–,–,–,"CC(C)(O)COc1ccc(F)cc1C1CCN([C@@H]2COC3(C2)CN(c2ncns2)C3)CC1 [Example 5C, (S)-1-(2-(1-(2-(1,2,4-thiadiazol-5-yl)-5-oxa-2-azaspiro[3.4]octan-7-yl)piperidin-4-yl)-4-fluorophenoxy)-2-methylpropan-2-ol]"
0.456,32,0,> 25,0,> 25,–,–,–,"Fc1ccc(OC[C@@H]2COCCO2)c(C2CCN([C@@H]3COC4(C3)CN(c3nncs3)C4)CC2)c1 [Example 5L, (S)-7-(4-(2-(((S)-1,4-dioxan-2-yl)methoxy)-5-fluorophenyl)piperidin-1-yl)-2-(1,3,4-thiadiazol-2-yl)-5-oxa-2-azaspiro[3.4]octane]"
